Where “and” joins values, the source holds several entries; their conditions need not be identical. Identical values can stand only once. Like-named read-outs stand apart in the source and are kept apart here.
Experiments:
FGFR1 [1] = biological target: T1, FGFR1 (Homo sapiens, UniProt P11362); assay: ATP competitive inhibition assay (caliper mobility shift assay); format: biochemical; conditions: ATP 33-4192 μM, substrate constant
T1 construct: purchased Carna Biosciences Inc. (Kobe, Japan)
Experimental: In the experiments for testing the relationship between the compounds and ATP, the concentration of the substrate was constant, while the concentrations of ATP were set at 4192, 2096, 1048, 524, 262, 131, 66, and33 μM. The global competitive inhibition fit for the compounds was performed based on percent conversion = (Vmax*X)/{km*[([1] + I/Ki)^n] + X}, where X is the ATP concentration, and n is the Hill coefficient.

EGFR = biological target: T2, EGFR (Homo sapiens, UniProt P00533); assay: Cell-free kinase activity assay (Caliper Mobility Shift Assay); format: biochemical; conditions: ATP at Km; mean of 3-5 independent tests
T2 construct: purchased Carna Biosciences Inc. (Kobe, Japan)
T2 sequence (P00533 25-1210): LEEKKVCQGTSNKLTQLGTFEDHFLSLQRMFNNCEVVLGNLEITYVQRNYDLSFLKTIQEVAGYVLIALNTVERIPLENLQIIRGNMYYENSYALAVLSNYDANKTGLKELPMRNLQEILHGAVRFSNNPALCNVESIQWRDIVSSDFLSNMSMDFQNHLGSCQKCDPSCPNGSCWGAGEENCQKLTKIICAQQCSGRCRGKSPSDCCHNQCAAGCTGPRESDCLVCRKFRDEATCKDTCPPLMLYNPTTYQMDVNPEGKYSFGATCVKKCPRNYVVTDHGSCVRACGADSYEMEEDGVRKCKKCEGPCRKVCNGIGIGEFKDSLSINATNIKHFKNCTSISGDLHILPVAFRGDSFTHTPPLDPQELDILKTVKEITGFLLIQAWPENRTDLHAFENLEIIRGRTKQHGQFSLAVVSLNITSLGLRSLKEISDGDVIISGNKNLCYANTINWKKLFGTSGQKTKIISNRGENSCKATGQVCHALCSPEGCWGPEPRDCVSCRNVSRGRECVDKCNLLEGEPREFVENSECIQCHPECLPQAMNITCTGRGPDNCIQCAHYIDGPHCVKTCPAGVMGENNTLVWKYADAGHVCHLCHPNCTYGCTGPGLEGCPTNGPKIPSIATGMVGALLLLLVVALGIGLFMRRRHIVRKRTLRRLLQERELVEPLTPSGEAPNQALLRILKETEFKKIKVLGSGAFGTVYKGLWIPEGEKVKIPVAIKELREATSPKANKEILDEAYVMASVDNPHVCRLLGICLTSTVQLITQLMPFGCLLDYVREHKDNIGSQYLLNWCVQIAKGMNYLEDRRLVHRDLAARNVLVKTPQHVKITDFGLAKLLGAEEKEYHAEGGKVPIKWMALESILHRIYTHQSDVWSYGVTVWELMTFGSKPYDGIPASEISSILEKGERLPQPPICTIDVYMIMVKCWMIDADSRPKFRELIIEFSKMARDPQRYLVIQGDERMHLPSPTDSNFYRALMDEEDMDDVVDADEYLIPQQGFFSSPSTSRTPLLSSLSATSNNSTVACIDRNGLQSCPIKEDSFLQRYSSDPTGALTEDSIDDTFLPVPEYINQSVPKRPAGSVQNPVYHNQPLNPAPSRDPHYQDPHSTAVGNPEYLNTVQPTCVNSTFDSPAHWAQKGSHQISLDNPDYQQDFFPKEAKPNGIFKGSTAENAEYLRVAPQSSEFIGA
Experimental: (§3) Compounds were performed with caliper mobility shift assay for RTK inhibition, and the IC50 values were calculated using conversion rates. The data were shown as a mean of 3-5 independent tests.
(§4) The activity of tyrosine kinase including FGFR1, FGFR2, FGFR3, EGFR, VEGFR-2, c-MET, and PDGFR-β were tested by Caliper Mobility Shift Assay on Caliper EZ reader (Caliper Life Sciences, MA) according to the instructions provided. […] For each kinase assay, the ATP concentration used in the assay was set at the Km value of the corresponding kinase. […] In the electrophoretic mobility shift assays, product accumulation was expressed as percentage conversion, product peak height/(product peak height + substrate peak height).

FGFR1 [2] = biological target: T1, FGFR1; assay: as above; format: biochemical; conditions: ATP at Km; mean of 3-5 independent tests
Experimental: as §3, §4

H460 cells [3] = assay: bFGF-induced phosphorylation of FGFR1, western blot; format: cell-based, human; conditions: bFGF 30 ng/mL for 10 min, pretreatment with compound
Experimental: (§1) Figure 3 […]25 inhibited proliferation and induced apoptosis in H460 cells (A) H460 cells were pretreated with compounds at indicated concentrations, followed by the treatment with bFGF (30 ng/mL) for 10 min. The phosphorylation level of FGFR1 in cell lysates was measured by western blot analysis. The column figures show the normalized optical density as a percentage of total FGFR1 control. (B) H460 cells were treated with compounds at concentrations (0.74, 2.22, 6.67, 20, and 60 μM) for 72 h. The MTT assay gives the respective IC50 values of compounds. (C) The time-course cell survival profile of H460 cells treated by compounds at 20 μM was detected through an MTT assay. (D) Effects of […]25 on caspase activation in H460 cells. […] The levels of cleaved caspase-3 and cleaved caspase-9 were determined by western blot analysis.

H460 cells [4] = assay: Apoptosis analysis, Annexin V/PI flow cytometry; format: cell-based, human; conditions: 2.5, 5, 10 μM
H460 cells [5] = assay: Caspase activation (cleaved caspase-3 and -9), western blot; format: cell-based, human; conditions: 10 μM, 12 h
Experimental: as §1

FGFR3 = biological target: T3, FGFR3 (Homo sapiens, UniProt P22607); assay: Cell-free kinase activity assay (Caliper Mobility Shift Assay); format: biochemical
T3 construct: purchased Carna Biosciences Inc. (Kobe, Japan)
T3 sequence (P22607 23-806): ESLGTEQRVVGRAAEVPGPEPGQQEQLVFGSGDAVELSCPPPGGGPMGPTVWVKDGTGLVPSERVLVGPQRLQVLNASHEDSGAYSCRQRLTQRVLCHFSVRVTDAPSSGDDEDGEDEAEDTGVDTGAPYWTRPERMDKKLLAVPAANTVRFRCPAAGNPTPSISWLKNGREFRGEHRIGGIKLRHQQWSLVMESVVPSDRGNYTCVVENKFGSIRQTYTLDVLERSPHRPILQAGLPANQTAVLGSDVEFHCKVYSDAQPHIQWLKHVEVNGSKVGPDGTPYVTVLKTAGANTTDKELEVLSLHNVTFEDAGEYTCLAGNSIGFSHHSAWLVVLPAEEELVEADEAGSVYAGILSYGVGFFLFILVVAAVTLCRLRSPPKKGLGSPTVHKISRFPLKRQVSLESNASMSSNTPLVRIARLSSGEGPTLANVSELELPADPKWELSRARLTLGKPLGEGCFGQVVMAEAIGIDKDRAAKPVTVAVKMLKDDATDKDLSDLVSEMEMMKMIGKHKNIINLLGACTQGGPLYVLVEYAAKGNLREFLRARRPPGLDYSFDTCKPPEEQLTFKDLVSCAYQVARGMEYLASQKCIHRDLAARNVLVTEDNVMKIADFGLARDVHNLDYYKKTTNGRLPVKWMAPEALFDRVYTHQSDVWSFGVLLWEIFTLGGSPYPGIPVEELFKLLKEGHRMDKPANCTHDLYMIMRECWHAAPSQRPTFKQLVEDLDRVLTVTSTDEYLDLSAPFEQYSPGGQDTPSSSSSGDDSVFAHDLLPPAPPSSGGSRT
Experimental: as §3, §4

PDGFRβ = biological target: T4, PDGFRβ (Homo sapiens, UniProt P09619); assay: as above; format: biochemical; conditions: ATP at Km; mean of 3-5 independent tests
T4 construct: purchased Carna Biosciences Inc. (Kobe, Japan)
Experimental: as §3, §4

[6] = system: H460 xenograft tumor tissue; assay: Protein levels in xenograft tumor tissue (western blot, immunohistochemistry); format: in vivo, BALB/cA nude mice; conditions: 3 mg/kg/d i.p.; for Phosphorylated FGFR1 in tumor tissue (western blot): compared to untreated group; for Expression of Bcl-2, Cyclin D1 and cox-2 in tumor tissue (immunohistochemistry): compared with model group
Experimental: (§2) Figure 4 Anti-tumor effects of compounds […] H460 xenograft models Xenografts were established in nude mice. […] (A) Tumor volume (mm^3) and (B) Tumor weight (g) were recorded (* P <0.05, ** P < 0.01). (C) Body weight of each mice was recorded. (D) pFGFR1 expressions in tumor tissues were detected by Western Blot with FGFR1 as internal control. (E) The levels of p-ERK, p-AKT, Bcl-2, CyclinD1, and COX-2 in tumor tissues were detected by immunohistochemical staining. Representative pictures are shown.

H460 cells [7] = assay: MTT anti-proliferation assay; format: cell-based, human; conditions: for Time-course cell survival (MTT): 20 μM, 0-72 h; for IC50: Homo sapiens, NCI-H460, 72 h, read-out: IC50 against H460 cells (MTT)
Experimental: as §1

[8] = system: FGFR1-overexpressing HEK293 cells; assay: bFGF-induced phosphorylation of FGFR1 and ERK, western blot; format: cell-based; conditions: bFGF 30 ng/mL for 10 min, pretreatment with compound
Experimental: (C and D) FGFR1 over-expressing 293 cells were pretreated with compounds at indicated concentrations or vehicle (0.1% DMSO), respectively. Then, cells were stimulated with bFGF (30 ng/mL) for 10 min, and the phosphorylation level of FGFR1 and ERK in cell lysates was measured by western blot analysis. The figures were representative of 3 separate experiments (C). […] Statistical significance relative to bFGF alone group was expressed, * P <0.05, ** P < 0.01.
Cells or homogenated tumor tissues were lysated. The protein concentrations in all samples were determined by using the Bradford protein assay kit (Bio-Rad, Hercules, CA). The supernatant was run on 10% SDS-PAGE gel followed by being transferred to a PVDF membrane. After being blocked with 5% non-fat dry milk in TBST for 1.5h, the membrane was incubated with the primary antibody overnight followed by incubation with goat anti-rabbit IgG, HRP-linked antibody for 1 h. The blots were detected with an ECL detection kit (Bio-Rad, Hercules, CA) according to the manufacturer's procedure. The results were analyzed by Quantity One software to determine the relative band density ratio.

VEGFR2 = biological target: T5, VEGFR2 (Homo sapiens, UniProt P35968); assay: Cell-free kinase activity assay (Caliper Mobility Shift Assay); format: biochemical; conditions: ATP at Km; mean of 3-5 independent tests
T5 construct: purchased Carna Biosciences Inc. (Kobe, Japan)
T5 sequence (P35968 20-1356): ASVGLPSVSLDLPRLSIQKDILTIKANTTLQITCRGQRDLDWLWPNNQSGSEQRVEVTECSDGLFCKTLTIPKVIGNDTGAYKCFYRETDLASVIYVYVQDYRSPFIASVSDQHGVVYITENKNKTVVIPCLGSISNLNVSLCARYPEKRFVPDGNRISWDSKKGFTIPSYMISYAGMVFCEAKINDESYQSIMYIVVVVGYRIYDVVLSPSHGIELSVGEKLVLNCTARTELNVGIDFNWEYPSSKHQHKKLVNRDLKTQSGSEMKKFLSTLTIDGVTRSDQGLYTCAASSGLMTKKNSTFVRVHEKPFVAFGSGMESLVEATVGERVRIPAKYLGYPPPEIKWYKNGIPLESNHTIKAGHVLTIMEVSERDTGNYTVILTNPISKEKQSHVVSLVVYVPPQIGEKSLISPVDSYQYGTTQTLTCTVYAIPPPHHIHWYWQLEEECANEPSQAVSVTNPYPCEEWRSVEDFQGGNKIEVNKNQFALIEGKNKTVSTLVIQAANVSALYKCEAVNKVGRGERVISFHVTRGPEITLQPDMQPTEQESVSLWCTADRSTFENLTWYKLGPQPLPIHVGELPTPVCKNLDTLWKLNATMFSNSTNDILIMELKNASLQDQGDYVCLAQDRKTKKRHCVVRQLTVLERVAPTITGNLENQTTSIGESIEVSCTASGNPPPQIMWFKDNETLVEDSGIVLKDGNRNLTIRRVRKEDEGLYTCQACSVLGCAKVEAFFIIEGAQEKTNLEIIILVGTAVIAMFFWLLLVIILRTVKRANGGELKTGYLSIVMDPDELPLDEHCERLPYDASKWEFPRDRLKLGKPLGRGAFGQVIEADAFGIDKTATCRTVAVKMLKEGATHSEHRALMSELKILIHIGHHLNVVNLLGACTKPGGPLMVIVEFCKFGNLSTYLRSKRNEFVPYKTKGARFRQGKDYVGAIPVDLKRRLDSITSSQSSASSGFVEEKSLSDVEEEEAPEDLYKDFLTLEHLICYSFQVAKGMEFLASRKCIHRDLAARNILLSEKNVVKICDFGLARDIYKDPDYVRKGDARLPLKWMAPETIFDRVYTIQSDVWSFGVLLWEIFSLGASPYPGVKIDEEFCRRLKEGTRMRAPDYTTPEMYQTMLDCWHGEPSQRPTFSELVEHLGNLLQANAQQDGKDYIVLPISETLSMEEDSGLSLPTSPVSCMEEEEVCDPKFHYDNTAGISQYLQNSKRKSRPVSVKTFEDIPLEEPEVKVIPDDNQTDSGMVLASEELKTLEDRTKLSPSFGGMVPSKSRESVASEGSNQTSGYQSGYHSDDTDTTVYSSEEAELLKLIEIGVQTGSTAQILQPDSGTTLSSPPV
Experimental: as §3, §4

H460 xenograft = assay: In vivo anti-tumor study, H460 xenograft; set-up: species or system BALB/cA nude mice; conditions: for Tumor weight inhibition rate: 3 mg/kg/d i.p. once daily for 28 days; for Tumor volume: 3 mg/kg/d i.p., 28th day, compared to model group
Experimental: as §2

FGFR2 = biological target: T6, FGFR2 (Homo sapiens, UniProt P21802); assay: Cell-free kinase activity assay (Caliper Mobility Shift Assay); format: biochemical
T6 construct: purchased Carna Biosciences Inc. (Kobe, Japan)
T6 sequence (P21802 22-821): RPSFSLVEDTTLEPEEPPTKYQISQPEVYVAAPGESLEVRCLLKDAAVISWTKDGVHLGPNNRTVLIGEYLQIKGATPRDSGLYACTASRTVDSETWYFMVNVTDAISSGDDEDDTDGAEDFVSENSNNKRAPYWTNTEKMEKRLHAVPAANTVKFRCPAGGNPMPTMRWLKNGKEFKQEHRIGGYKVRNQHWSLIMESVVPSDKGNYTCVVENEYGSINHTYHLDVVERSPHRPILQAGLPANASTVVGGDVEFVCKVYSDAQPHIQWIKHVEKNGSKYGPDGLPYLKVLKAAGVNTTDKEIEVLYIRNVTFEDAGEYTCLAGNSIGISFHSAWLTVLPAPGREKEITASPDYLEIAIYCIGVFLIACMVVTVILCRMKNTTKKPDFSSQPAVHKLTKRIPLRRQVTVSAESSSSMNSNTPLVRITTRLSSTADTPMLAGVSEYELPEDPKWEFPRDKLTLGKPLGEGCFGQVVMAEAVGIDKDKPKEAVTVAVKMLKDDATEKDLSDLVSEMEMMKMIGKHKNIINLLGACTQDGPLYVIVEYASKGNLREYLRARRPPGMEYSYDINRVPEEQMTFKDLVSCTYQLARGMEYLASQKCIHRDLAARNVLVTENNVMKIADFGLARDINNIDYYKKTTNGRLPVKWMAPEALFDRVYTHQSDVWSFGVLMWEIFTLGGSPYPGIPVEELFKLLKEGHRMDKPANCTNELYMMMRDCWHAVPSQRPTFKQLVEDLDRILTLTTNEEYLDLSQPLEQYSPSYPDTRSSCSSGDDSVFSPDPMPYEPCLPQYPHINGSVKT
Experimental: as §3, §4

[9] = Body weight of mice in H460 xenograft study; format: in vivo, BALB/cA nude mice; conditions: for Change of body weight during treatment: 3 mg/kg/d i.p. for 28 days; for Body weight: 3 mg/kg/d i.p., in g (unit assumed)
Experimental: as §2

c-MET = c-MET (Homo sapiens, UniProt P08581); assay: Cell-free kinase activity assay (Caliper Mobility Shift Assay); format: biochemical; conditions: ATP at Km; mean of 3-5 independent tests
Experimental: as §3, §4

T1 sequence (P11362 22-822): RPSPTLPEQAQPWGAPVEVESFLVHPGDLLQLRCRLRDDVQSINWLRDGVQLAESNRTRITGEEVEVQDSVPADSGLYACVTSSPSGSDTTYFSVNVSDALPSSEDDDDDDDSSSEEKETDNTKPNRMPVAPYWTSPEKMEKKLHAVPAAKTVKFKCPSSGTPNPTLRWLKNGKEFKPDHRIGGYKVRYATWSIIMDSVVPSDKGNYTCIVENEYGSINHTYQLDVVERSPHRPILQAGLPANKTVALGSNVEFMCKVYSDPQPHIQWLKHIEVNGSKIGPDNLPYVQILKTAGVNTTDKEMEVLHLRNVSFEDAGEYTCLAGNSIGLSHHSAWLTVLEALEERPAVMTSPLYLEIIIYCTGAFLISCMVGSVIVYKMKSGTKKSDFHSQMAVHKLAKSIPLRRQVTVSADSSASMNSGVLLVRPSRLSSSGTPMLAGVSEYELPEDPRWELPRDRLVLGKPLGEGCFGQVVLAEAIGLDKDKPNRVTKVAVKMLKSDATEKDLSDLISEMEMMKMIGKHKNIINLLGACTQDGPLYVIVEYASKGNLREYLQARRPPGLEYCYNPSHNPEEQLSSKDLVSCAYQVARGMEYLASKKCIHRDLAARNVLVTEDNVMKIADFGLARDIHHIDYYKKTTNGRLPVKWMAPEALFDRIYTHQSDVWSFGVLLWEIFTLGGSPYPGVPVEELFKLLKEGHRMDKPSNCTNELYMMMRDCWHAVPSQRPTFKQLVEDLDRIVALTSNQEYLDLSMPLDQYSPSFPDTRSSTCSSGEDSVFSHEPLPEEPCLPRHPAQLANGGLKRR

Compound: O=C1/C(=C/c2ccccc2Br)CNC/C1=C\c1ccccc1Br [Aea25]
- Effect of increased ATP concentration on FGFR1 inhibition (mode of inhibition) (FGFR1 [1]): ATP independent manner
- IC50 (EGFR): 33.3 µM
- IC50 (FGFR1 [2]): 8.8 µM and 6.5 µM
- Phosphorylation of FGFR1 (H460 cells [3]): inhibited this effect in a dose-dependent fashion
- Apoptotic cell rate (H460 cells [4]): induced H460 cell apoptosis in a dose-dependent manner
- Expression of cleaved caspase 3 and 9 (H460 cells [5]): significantly increased
- IC50 (FGFR3): 43.2 µM
- IC50 (PDGFRβ): 84 µM
- Phosphorylated FGFR1 in tumor tissue (western blot) [6]: decreased expression of phosphorylated FGFR1
- Expression of Bcl-2, Cyclin D1 and cox-2 in tumor tissue (immunohistochemistry) [6]: effectively restrained the expression of Bcl-2, Cyclin D1 and cox-2
- Time-course cell survival (MTT) (H460 cells [7]): inhibit cell proliferation and increase cell death of H460 time-dependently
- IC50 (H460 cells [7]): 5.8 µM
- Phosphorylation of FGFR1 and ERK [8]: inhibited their phosphorylation of FGFR1 and ERK in a dose-dependent manner
- IC50 (VEGFR2): 28.6 µM
- Tumor weight inhibition rate (H460 xenograft): 66.5%
- Tumor volume (H460 xenograft): significant reduction in tumor volume at the 28th day
- IC50 (FGFR2): 43.3 µM
- Change of body weight during treatment [9]: no obvious change
- Body weight ([9]; Week 1st): 22.01 ± 0.75
- Body weight ([9]; Week 2nd): 24.02 ± 0.53
- Body weight ([9]; Week 3rd): 25.26 ± 0.38
- Body weight ([9]; Week 4th): 25.36 ± 0.51
- IC50 (c-MET): 8.2 µM

Compound: O=C1/C(=C/c2ccccc2Cl)CNC/C1=C\c1ccccc1Cl [Aea4]
- Phosphorylation of FGFR1 (H460 cells [3]): inhibited this effect in a dose-dependent fashion
- Apoptotic cell rate (H460 cells [4]): induced H460 cell apoptosis in a dose-dependent manner
- Expression of cleaved caspase 3 and 9 (H460 cells [5]): significantly increased
- Phosphorylated FGFR1 in tumor tissue (western blot) [6]: decreased expression of phosphorylated FGFR1
- Expression of Bcl-2, Cyclin D1 and cox-2 in tumor tissue (immunohistochemistry) [6]: effectively restrained the expression of Bcl-2, Cyclin D1 and cox-2
- Time-course cell survival (MTT) (H460 cells [7]): inhibit cell proliferation and increase cell death of H460 time-dependently
- IC50 (H460 cells [7]): 5 µM
- Phosphorylation of FGFR1 and ERK [8]: inhibited their phosphorylation of FGFR1 and ERK in a dose-dependent manner
- Tumor weight inhibition rate (H460 xenograft): 55.0%
- Tumor volume (H460 xenograft): significant reduction in tumor volume at the 28th day
- Change of body weight during treatment [9]: no obvious change
- Body weight ([9]; Week 1st): 23.37 ± 0.73
- Body weight ([9]; Week 2nd): 24.94 ± 0.83
- Body weight ([9]; Week 3rd): 25.81 ± 0.85
- Body weight ([9]; Week 4th): 24.94 ± 0.79

Compound: C[C@H](Cc1ccc(O)c(O)c1)[C@@H](C)Cc1ccc(O)c(O)c1 [NDGA, Nordihydroguaiaretic acid, reference compound]
- Effect of increased ATP concentration on FGFR1 inhibition (mode of inhibition) (FGFR1 [1]): did not affect the rate of FGFR1 substrate phosphorylation
- IC50 (EGFR): 89.9 µM
- IC50 (FGFR1 [2]): 24.5 µM
- IC50 (FGFR3; ATP at Km, mean of 3-5 independent tests, read-out: IC50 FGFR3): 72.4 µM
- IC50 (PDGFRβ): > 100 µM
- IC50 (H460 cells [7]): 15.6 ± 1.2 µM
- IC50 (VEGFR2): > 100 µM
- IC50 (FGFR2; ATP at Km, mean of 3-5 independent tests, read-out: IC50 FGFR2): > 100 µM
- IC50 (c-MET): > 100 µM

— article PMC4147344, “Discovery of novel non-ATP competitive FGFR1 inhibitors and evaluation of their anti-tumor activity in non-small cell lung cancer in vitro and in vivo” (Oncotarget, 2014)
